# Results taken from patent US20050064501A1, “Medicaments comprising inhibitors of the cell volume-regulated human kinase h-sgk” (PROF. DR. MED. F. LANG, priority 1999, published 2005).
# “Also recorded” adds a separate entry of the source.
# T1: h-sgk (Homo sapiens, UniProt O00141)
# T1 construct: expressed in transfected cells; host or cells: Xenopus laevis oocytes (cRNA injection)
# T1 sequence (O00141 1-431): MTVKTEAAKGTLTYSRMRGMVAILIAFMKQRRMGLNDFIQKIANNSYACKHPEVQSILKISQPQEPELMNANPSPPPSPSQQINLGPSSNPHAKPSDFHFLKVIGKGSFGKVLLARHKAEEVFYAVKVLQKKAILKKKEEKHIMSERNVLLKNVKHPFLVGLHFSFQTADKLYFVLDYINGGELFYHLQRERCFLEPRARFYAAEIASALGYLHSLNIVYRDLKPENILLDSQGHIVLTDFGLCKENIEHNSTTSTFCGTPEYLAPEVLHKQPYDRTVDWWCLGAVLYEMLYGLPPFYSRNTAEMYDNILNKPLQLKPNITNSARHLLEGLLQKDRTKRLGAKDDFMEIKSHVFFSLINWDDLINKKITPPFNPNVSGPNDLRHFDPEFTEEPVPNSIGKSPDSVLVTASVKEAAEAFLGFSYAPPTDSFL
# What was measured:
# [1] = tested on: h-sgk expression; assay: Transcriptional regulation of h-sgk (Northern blot); type: cell-based; conditions: FIG. 1; TGFβ1 effect shown after 0.5 to 6 h
# Procedure: (§1) Cells were cultivated in RPMI/5% CO2/10 mM glucose at 37° C., pH 7.4, supplemented with 10% (vol/vol) fetal calf serum (FCS). The cells were grown to 90% confluence and then homogenized in TRIZOL (GIBCO/BRL) (about 0.4×10^6 per sample). Total RNA was prepared in accordance with the manufacturer's instructions. Northern blots were fractionated by electrophoresis through 10 g/l agarose gels with 15 or 20 μg of total RNA with separate control in the presence of 2.4 mol/l formaldehyde. RNA was transferred by vacuum (Appligene Oncor Trans DNA Express Vacuum Blotter, Appligine, Heidelberg, Germany) to positively charged nylon membranes (Boehringer Mannheim, Germany) and crosslinked under ultraviolet light (UV Stratalinker 2400, Stratagene, Heidelberg, Germany). Hybridization was carried out over night with DIG-Easy-Hyb (Boehringer Mannheim) at a probe concentration of 25 μg/l at 50° C. The digoxigenin (DIG)-labeled probes were produced by PCR as described in detail earlier (Waldegger et al. (1997) PNAS 94: 4440-4445). For the autoradiography, the filters were exposed to an X-ray film (Kodak) for an average of 5 min.
# [2] = tested on: biglycan expression; assay: Transcriptional regulation of biglycan (Northern blot); type: cell-based; conditions: FIG. 2; for effect of TGFβ1 on biglycan expression in the presence of the NKCC inhibitor: TGFβ1-stimulated
# Procedure: as §1
# [3] = tested on: NKCC; assay: 22Na+ tracer flux (furosemide-inhibitable Na+ uptake) in oocytes expressing NKCC with or without h-sgk; type: cell-based, Xenopus laevis; conditions: 22Na+ uptake
# Procedure: (§2) Dissection of Xenopus laevis, and the obtaining and treatment of the oocytes has been described in detail earlier (Busch et al. 1992). The oocytes were each injected with 1 ng of cRNA of NKCC, ENaC or MDEG with or without simultaneous injection of h-sgk. It was possible to carry out two-electrode voltage and current clamp experiments 2-8 days after the injection. Na^+ influx which could be inhibited by furosemide through the NKCC was measured by the ^22Na^+ uptake, which was determined with a scintillation counter, into the oocytes. Na^+ currents (ENaC) were filtered at 10 Hz and recorded with a pen recorder. The experiments were normally carried out on the second day after cRNA injection. The bath solution contained: 96 mM NaCl, 2 mM KCl, 1.8 mM CaCl2, 1 mM MgCl2 and 5 mM HEPES at pH 7.5 and the holding potential was −50 mV. The pH was adjusted by titration with HCl or NaOH in all the experiments. The flow rate of the bath liquid was set at 20 ml/min, which ensured a complete change of solution in the measurement chamber within 10-15 s. All the data are stated in the form of arithmetic means ±SEM.
# [4] = target: T1, h-sgk; assay: Two-electrode voltage clamp of ENaC current in oocytes coexpressing h-sgk; type: cell-based; conditions: for activation of ENaC (Na+ channel current) by h-sgk: oocytes coexpressing ENaC and h-sgk, treated with kinase inhibitor, FIG. 4
# Procedure: as §2
molecule,measurement,setting,value
C[C@H](CCC(=O)O)C[C@H](C)C[C@H](C)C(=O)/C=C(\O)[C@H](C)C[C@H](C)C/C=C/[C@@H](C)[C@@H](O)[C@@H](C)[C@@H](O)C[C@@H]1CC[C@@](C)([C@H]2CC[C@@](C)([C@@H](C)O)O2)O1 [ionomycin],expression of h-sgk,[1],likewise stimulate
CCCCNc1cc(C(=O)O)cc(S(N)(=O)=O)c1Oc1ccccc1 [bumetanide],effect of TGFβ1 on biglycan expression in the presence of the NKCC inhibitor,[2],almost completely suppressed
NS(=O)(=O)c1cc(C(=O)O)c(NCc2ccco2)cc1Cl [furosemide],effect of TGFβ1 on biglycan expression in the presence of the NKCC inhibitor,[2],completely suppressed
same,increased expression of the matrix proteins in fibroblasts,[2]; fibroblasts,can be suppressed
same,Na+ influx in NKCC-injected oocytes,"[3]; NKCC alone, without h-sgk, FIG. 3 top",not inhibited
same,increase in Na+ influx on coexpression of h-sgk with NKCC,"[3]; oocytes coexpressing h-sgk and NKCC, FIG. 3 below",completely suppressed
COc1ccc2c(c[n+](C)c3c4cc5c(cc4ccc23)OCO5)c1OC [chelerythrine],activation of ENaC (Na+ channel current) by h-sgk,[4],suppresses; also recorded: completely to suppress
"CCCCCCCCCC(=O)O[C@@H]1[C@@H](C)[C@@]2(O)[C@@H](C=C(CO)C[C@@]3(O)C(=O)C(C)=C[C@@H]23)[C@@H]2C(C)(C)[C@]12OC(=O)CCCCCCCCC [PDD, 4-alpha-phorbol 12,13-didecanoate]",expression of h-sgk,[1],likewise stimulate
CN[C@@H]1C[C@H]2O[C@@](C)([C@@H]1OC)n1c3ccccc3c3c4c(c5c6ccccc6n2c5c31)C(=O)NC4 [staurosporine],activation of ENaC (Na+ channel current) by h-sgk,[4],suppresses; also recorded: completely to suppress
TGFβ1: tumor growth factor β1,expression of h-sgk,[1],stimulated
same,expression of biglycan,[2],stimulated
"trans-dominant inhibitory kinase: h-sgk modified by mutation: lysine in position 127 replaced by arginine (K127R); suppresses the catalytic function (protein, UniProt O00141 1-431, looked up, variant K127R) Serine/threonine-protein …: MTVKTEAAKGTLTYSRMRGMVAILIAFMKQRRMGLNDFIQKIANNSYACKHPEVQSILKISQPQEPELMNANPSPPPSPSQQINLGPSSNPHAKPSDFHFLKVIGKGSFGKVLLARHKAEEVFYAVRVLQKKAILKKKEEKHIMSERNVLLKNVKHPFLVGLHFSFQTADKLYFVLDYINGGELFYHLQRERCFLEPRARFYAAEIASALGYLHSLNIVYRDLKPENILLDSQGHIVLTDFGLCKENIEHNSTTSTFCGTPEYLAPEVLHKQPYDRTVDWWCLGAVLYEMLYGLPPFYSRNTAEMYDNILNKPLQLKPNITNSARHLLEGLLQKDRTKRLGAKDDFMEIKSHVFFSLINWDDLINKKITPPFNPNVSGPNDLRHFDPEFTEEPVPNSIGKSPDSVLVTASVKEAAEAFLGFSYAPPTDSFL",stimulating effect of h-sgk coexpression on the ENaC-mediated Na+ current,"[4]; coexpression of the trans-dominant inhibitory kinase in oocytes, FIG. 5",can be suppressed
